The results in this text go back to ChEMBL document CHEMBL5247586, “Discovery of fusidic acid derivatives as novel STING inhibitors for treatment of sepsis” (Eur J Med Chem, 2022).

Assay [1] relates to RAW264.7. The assay is described as follows: Anti inflammatory activity in LPS-induced mouse RAW264.7 cells assessed as inhibition of NO production at 2.5 uM preincubated with compound for 2 hrs followed by LPS stimulation and measured after 24 hrs by griess reagent based assay relative to control. Type of assay: functional. The conditions noted are these: time 26 hrs. Background: The Griess reaction detects nitrite, a stable product of nitric oxide.

For assay [2], the target named is T1, Serine/threonine-protein kinase TBK1 (Mus musculus) (UniProt Q9WUN2).
T1 sequence (whole entry): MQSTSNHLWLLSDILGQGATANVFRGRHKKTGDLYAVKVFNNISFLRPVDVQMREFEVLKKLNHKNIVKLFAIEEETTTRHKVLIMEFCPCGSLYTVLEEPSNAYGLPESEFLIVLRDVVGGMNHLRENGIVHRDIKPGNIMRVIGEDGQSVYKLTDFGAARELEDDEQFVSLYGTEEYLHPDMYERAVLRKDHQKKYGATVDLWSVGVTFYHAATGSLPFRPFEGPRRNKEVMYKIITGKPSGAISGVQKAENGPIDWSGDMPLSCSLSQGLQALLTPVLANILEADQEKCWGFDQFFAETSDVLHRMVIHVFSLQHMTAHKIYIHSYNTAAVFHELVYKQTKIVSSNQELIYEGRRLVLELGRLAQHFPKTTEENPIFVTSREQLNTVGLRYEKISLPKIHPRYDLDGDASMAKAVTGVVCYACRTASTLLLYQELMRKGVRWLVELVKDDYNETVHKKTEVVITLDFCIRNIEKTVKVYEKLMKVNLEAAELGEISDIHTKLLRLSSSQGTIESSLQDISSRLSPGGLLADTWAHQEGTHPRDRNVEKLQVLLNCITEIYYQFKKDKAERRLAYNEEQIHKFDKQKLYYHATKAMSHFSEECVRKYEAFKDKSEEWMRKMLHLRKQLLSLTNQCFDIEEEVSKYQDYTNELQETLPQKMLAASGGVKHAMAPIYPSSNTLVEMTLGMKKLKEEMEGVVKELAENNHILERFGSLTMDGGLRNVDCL
The assay is described as follows: Inhibition of TBK1 phosphorylation in LPS-induced mouse RAW264.7 cells preincubated with compound for 2 hrs followed by LPS stimulation and measured after 6 hrs by Western blot analysis. Particulars: dose 0.5-2 µM, time 8.0 hrs. The format is cell-based. (A western blot detects proteins with antibodies after separation by electrophoresis.)

Assay [3] addresses Transcription factor p65 (Mus musculus) (UniProt Q04207). The assay is described as follows: Inhibition of p65 phosphorylation in LPS-induced mouse RAW264.7 cells preincubated with compound for 2 hrs followed by LPS stimulation and measured after 6 hrs by Western blot analysis. Type of assay: cell-based. The conditions noted are these: dose 0.5-2 µM, time 8.0 hrs.
Assay [4] addresses T2, Inhibitor of nuclear factor kappa-B kinase subunit beta (Mus musculus) (UniProt O88351).
T2 sequence (whole entry): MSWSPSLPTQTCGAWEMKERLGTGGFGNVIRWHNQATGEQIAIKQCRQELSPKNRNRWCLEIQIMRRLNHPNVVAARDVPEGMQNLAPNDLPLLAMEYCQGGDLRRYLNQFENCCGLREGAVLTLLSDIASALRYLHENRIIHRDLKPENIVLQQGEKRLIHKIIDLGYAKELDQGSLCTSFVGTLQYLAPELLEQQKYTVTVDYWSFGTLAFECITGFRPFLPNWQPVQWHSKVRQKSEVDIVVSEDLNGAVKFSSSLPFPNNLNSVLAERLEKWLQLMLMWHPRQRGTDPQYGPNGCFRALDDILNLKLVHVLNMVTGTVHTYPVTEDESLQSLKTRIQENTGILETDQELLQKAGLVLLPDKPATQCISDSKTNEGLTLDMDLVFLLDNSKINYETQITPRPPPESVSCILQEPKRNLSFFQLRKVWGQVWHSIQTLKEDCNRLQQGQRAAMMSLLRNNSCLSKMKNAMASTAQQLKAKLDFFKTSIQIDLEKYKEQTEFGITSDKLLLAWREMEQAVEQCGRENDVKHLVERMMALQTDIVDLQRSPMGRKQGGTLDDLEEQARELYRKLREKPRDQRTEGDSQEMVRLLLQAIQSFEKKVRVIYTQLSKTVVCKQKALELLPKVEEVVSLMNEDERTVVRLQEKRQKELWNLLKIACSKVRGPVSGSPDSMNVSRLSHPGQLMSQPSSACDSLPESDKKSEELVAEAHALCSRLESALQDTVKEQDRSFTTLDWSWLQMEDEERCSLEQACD
The assay is described as follows: Inhibition of IkappaB phosphorylation in LPS-induced mouse RAW264.7 cells preincubated with compound for 2 hrs followed by LPS stimulation and measured after 6 hrs by Western blot analysis. The format is cell-based. The conditions noted are these: dose 0.5-2 µM, time 8.0 hrs.

Assay [5] relates to RAW264.7. The assay is described as follows: Anti inflammatory activity in LPS-induced mouse RAW264.7 cells assessed as suppression of TNF-alpha levels at 0.5 to 2 uM preincubated with compound for 2 hrs followed by LPS stimulation for 6 hrs by ELISA method. Particulars: dose 0.5-2 µM, time 8.0 hrs. The format is functional, cell-based.
In assay [6] the test system is Mus musculus. The assay is described as follows: Protective activity against LPS induced sepsis in BALB/c mouse model of acute liver injury assessed as improvement in blurred boundaries in liver tissue at 1.25 to 5 mg/kg, IG administered once a day for 3 days followed by LPS stimulation for 12 hrs starting from 2 hrs post last dose by hematoxylin and eosin staining based analysis. Type of assay: functional, organism-based. The conditions noted are these: dose 1.25-5 mg/kg, time 86.0 hrs.

The subject of assay [7] is Mus musculus. The assay is described as follows: Protective activity against LPS induced sepsis in BALB/c mouse model of acute liver injury assessed as improvement in swollen hepatocytes at 1.25 to 5 mg/kg, IG administered once a day for 3 days followed by LPS stimulation for 12 hrs starting from 2 hrs post last dose by hematoxylin and eosin staining based analysis. The conditions noted are these: dose 1.25-5 mg/kg, time 86.0 hrs. The format is functional, organism-based.

In assay [8] the test system is Mus musculus. Description: Protective activity against LPS induced sepsis in BALB/c mouse model of acute liver injury assessed as reduction in necrotic hepatocytes at 1.25 to 5 mg/kg, IG administered once a day for 3 days followed by LPS stimulation for 12 hrs starting from 2 hrs post last dose by hematoxylin and eosin staining based analysis. Particulars: dose 1.25-5 mg/kg, time 86.0 hrs. Type of assay: functional, organism-based.

Assay [9] concerns Mus musculus. The assay is described as follows: Protective activity against LPS induced sepsis in BALB/c mouse model of acute liver injury assessed as reduction in AST level in serum at 1.25 to 5 mg/kg, IG administered once a day for 3 days followed by LPS stimulation for 12 hrs starting from 2 hrs post last dose by ELISA. Type of assay: functional, organism-based. The conditions noted are these: dose 1.25-5 mg/kg, time 86.0 hrs. In general terms: ELISA stands for enzyme-linked immunosorbent assay.

Assay [10] has as its system Mus musculus. The assay is described as follows: Protective activity against LPS induced sepsis in BALB/c mouse model of acute liver injury assessed as reduction in ALT level in serum at 1.25 to 5 mg/kg, IG administered once a day for 3 days followed by LPS stimulation for 12 hrs starting from 2 hrs post last dose by ELISA. Type of assay: functional, organism-based. The conditions noted are these: dose 1.25-5 mg/kg, time 86.0 hrs.

Activity calls are given as the source filed them. No cut-off for these calls is given here.

Transcription factor p65 (Mus musculus), sequence (Q04207 whole entry): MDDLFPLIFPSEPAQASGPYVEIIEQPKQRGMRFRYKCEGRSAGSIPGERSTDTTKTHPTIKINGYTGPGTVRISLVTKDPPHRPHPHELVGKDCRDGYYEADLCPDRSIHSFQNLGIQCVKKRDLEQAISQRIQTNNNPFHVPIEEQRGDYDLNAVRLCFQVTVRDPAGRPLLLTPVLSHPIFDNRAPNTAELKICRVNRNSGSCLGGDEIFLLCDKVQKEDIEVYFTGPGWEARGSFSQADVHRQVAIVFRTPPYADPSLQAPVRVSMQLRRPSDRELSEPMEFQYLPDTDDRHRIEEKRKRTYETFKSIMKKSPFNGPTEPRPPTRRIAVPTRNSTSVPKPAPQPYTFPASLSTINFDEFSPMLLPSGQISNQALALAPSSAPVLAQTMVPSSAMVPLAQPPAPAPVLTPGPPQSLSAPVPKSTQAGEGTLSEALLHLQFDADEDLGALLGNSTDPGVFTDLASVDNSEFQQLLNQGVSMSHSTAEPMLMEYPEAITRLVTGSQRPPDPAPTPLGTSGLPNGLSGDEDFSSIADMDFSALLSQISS

For `C=CCONC(=O)CCSSCCC(=O)O[C@@H]1CC[C@@]2(C)[C@@H](CC[C@@]3(C)[C@H]2[C@H](O)C[C@H]2/C(=C(\CCC=C(C)C)C(=O)OCc4ccccc4)[C@@H](OC(C)=O)C[C@@]23C)[C@@H]1C`, in assay [1], the inhibition (as a rule, the relative decrease from the control value, in per cent) at 2.5 µM was determined as 69.3%. For the same compound, the inhibition entry in assay [2], in assay [3] and in assay [4] was “Dose-Dependent Effect” throughout. Moreover, the result in [5], in [6], in assay [7], in [8], in assay [9] and in [10] was Active.
